These results are taken from patent US4549023A, “3-Aminoindazole derivatives” (priority 1980, dated 1985).

Read-outs that look alike come from different tables or passages of the source.

In data set [1] the test system is carrageenin edema in rat's paw. In words: Carrageenin Edema Test in Rat's Paw (anti-inflammatory activity). Type of data set: in vivo, Female Wistar rats. The note with it: for inhibition in vivo at 100 mg/kg: Rattus norvegicus, hydrochloric acid salts; for Inhibition values compared with comparative compounds: Table 1, 100 mg/kg. Here is the method:
A standard method of Carrageenin Edema Test in Rat's Paw described in C. A. Winter et al., Proc. Soc. Exp. Biol. Med., 111, 544 (1962) was employed.
[…] One hour later, the pad of a hind paw of the rat was injected with 0.1 ml of 1% aqueous carrageenin solution. The volume of the paw was measured both before the injection of carrageenin and three hours after the injection.
The edema inhibition percentage of the test compound was calculated from the ratio of the increase in the volume of the affected paw of the test animals to the increase in the volume of the affected paw of the controls.
The anti-inflammatory activity of the 3-aminoindazole derivative hydrochloric acid salts of this invention was measured.
The anti-inflammatory activity of the 3-aminoindazole derivative hydrochloric acid salts obtained by Examples 1-49 of this invention was measured by the standard method of carrageenin edema test. In these tests, the amount of the administration of the salts was 100 mg/kg. The results are shown in Table 17 (Inhibition (%) was measured three hours after the injection).
On the technique in general: The carrageenan paw model is a standard test of acute inflammation.

The subject of data set [2] is carrageenin-inflamed hind paw of the rat (pressure pain). In words: Randall-Selitto Test (analgesic activity). The note with it: for Analgesic Coefficient, Table 18: 100 mg/kg, hydrochloric acid salts; for Analgesic Coefficient, Table 18 / Analgesic coefficient: water 0.8; for Analgesic coefficient: Randall-Selitto, oral, 50 mg/kg per method; for Analgesic activity by the Randall-Selitto test: rat, in vivo. Type of data set: in vivo, Female wister rats. The protocol:
The Randall-Selitto analgesic activity test was carried out according to the general method described in J. O. Randall & J. J. Selitto, Arch. Int. Pharmacodyn, 111, 409 (1957). Female wister rats weighing 120-150 g were orally administered 50 mg/kg of the test compound as an aqueous solution. Thirty minutes later, the pad of a hind paw of the rat was injected with 0.1 ml of 1% aqueous carrageenin solution. Pressure was applied to the paw where edema was formed by Balance-type Pressure Device (Ugo Basile Company; Italy) 1, 2, 3 and 4 hours after the injection. The weight when the test animals began to struggle with pain was measured. The analgesic activity is represented by an analgesic coefficient which is obtained by dividing the average weight measured 1.5, 2.5, 3.5 and 4.5 hours after the administration by the applied weight prior to the administration.
The analgesic activity of the 3-aminoindazole derivative hydrochloric acid salts obtained by Examples 2, 6, 10, 18, 22 and 28 of this invention was measured by the standard method of Randall-Selitto test. In these tests, the amount of the administration of the salts was 100 mg/kg.

Data set [3] in a line: Acute toxicity (LD50), intravenous injection. The note with it: mouse, in vivo, male ddY-strain mice, read-out: LD50, Table 19. The protocol: Acute toxicity was measured by an ordinary method described in Finney DJ Probit Analysis Cambridge University Press 48, (1952). Ddy mice weighing about 18 g on average, each group consisting of 10 animals, were […] injected with the physiological salt solution containing the test compound. The amount of the test compound administered was varied in 5-8 groups. Three days after the administration, dead animals were counted in each group. The amount of the test compound killing half the number of the animals (LD50) was calculated from the results.
The acute toxicity of the 3-aminoindazole derivatives and their hydrochloric acid salts obtained by Examples 1-49 of this invention was measured by giving male ddY-strain mice an intravenous injection.

Data set [4] has as its system acetic acid-induced writhing in mice. Nature of the data set: Acetic Acid-Writhing Test (analgesic activity). Format: in vivo, Male ddy-strain mice. Conditions: 100 mg/kg, oral, hydrochloric acid salts. The protocol:
Acetic acid-writhing test was carried out according to Koster et al., Fed. Proc., 18, 412 (1959). […] Thirty minutes later, the mice were intraperitoneally injected with 0.1 ml/10 g of 0.7% acetic acid physiological salt solution as a stimulant. Ten minutes after the stimulant injection, writhing frequency as pain response was observed and recorded over 10 minutes.
The inhibition percentage of the test compound was represented as the ratio of the inhibition of the writhing frequency.
Analgesic activity of 3-aminoindazole derivative hydrochloric acid salts was measured by acetic acid-writhing test.
Background: An intraperitoneal irritant provokes the stretching counted in writhing tests.

Data set [5] deals with gastric ulcer caused by indomethacin. Conditions: for Ulcer index: rat, in vivo. The protocol: The test compound was suspended in 1% HCO-60 (trade name for polyoxyethylene hydrogenated castor oil; a product of Nikko Chemical Co., Ltd., Japan) at the concentration of 10 mg/ml. Male donryu rats weighing 150-160 g were orally administered 100 mg/kg of the test compound. The occurrence of gastric ulcer was examined 24 hours after the administration.
It is well known that the single use of acidic non-steroidal anti-inflammatory drugs causes a side effect in digestive tracts such as gastric ulcer.

The subject of a further data set is gastric ulcer in rats. Nature of the data set: Anti-Ulcer Test: occurrence of gastric ulcer by test compound alone. Type of data set: in vivo, Male donryu rats. Conditions: 100 mg/kg singly administered at one time, oral. Here is the method:
Ulcer inhibition of 3-(3-diethylaminopropylamino)indazole (10) and 1-(3-piperidinopropyl)-3-aminoindazole (18), typical and preferred compounds of this invention, was measured.

Where [6] appears, read: po, 3 h, 100 mg/kg, measured three hours after the injection, read-out: Inhibition (carrageenin edema), Table 17.
The mark [7] stands for this setting: 100 mg/kg, oral, 3 h after carrageenin, read-out: Inhibition (carrageenin edema), Table 1.
Where [8] appears, read: 100 mg/kg compound together with 20 mg/kg of indomethacin.

As usually defined, the LD50 is the dose expected to kill half of the subjects tested. Regarding `CC1CCCCN1CCCNc1n[nH]c2ccccc12` (stereo not shown) [Compound (6), 3-{3-(2-methylpiperidino)propylamino}indazole], the “Inhibition (carrageenin edema), Table 2” value was 40% in data set [1] (25 mg/kg, oral); 53% in data set [1] (50 mg/kg, oral); 67% in data set [1] (100 mg/kg, oral). Further, the inhibition in vivo at 100 mg/kg in data set [1] (setting [6]) and in data set [1] (setting [7]) was 67% throughout. Also, the “Inhibition values compared with comparative compounds” value in data set [1] is recorded as “higher than that of the compound C-1”. In addition, the “Analgesic Coefficient, Table 18” value in data set [2] is 1.11. Moreover, the “Analgesic coefficient” value in data set [2] was 1.11. Moreover, the “Analgesic activity by the Randall-Selitto test” value in data set [2] is “potent analgesic activity”. Further, the LD50 at 72 h in data set [3] was 91 mg/kg. Also, the “Inhibition (acetic acid-writhing), Table 3” value (shortened to “Inhibition … Table 3”) in data set [4] came to 49%.
Regarding `CC1CCCCN1CCCn1nc(N)c2ccccc21` (stereo not shown) [Compound (22), 1-{3-(2-methylpiperidino)propyl}-3-aminoindazole], the “Inhibition (carrageenin edema), Table 2” value came out at 29% in data set [1] (25 mg/kg, oral); 33% in data set [1] (50 mg/kg, oral); 51% in data set [1] (100 mg/kg, oral). The inhibition in vivo at 100 mg/kg in data set [1] (setting [6]) and in data set [1] (setting [7]) was 51% in each case. In addition, the “Inhibition values compared with comparative compounds” value in data set [1] was “higher than those of the compounds C-2 and C-3”. In data set [2], the “Analgesic Coefficient, Table 18” value is 1.05. For the same compound, the “Analgesic coefficient” value in data set [2] turned out to be 1.05. In addition, the “Analgesic activity by the Randall-Selitto test” value in data set [2] is “potent analgesic activity”. For the same compound, in data set [3], the LD50 at 72 h came out at 102 mg/kg. The “Inhibition … Table 3” value in data set [4] turned out to be 31%.
For `Nc1nn(-c2ccccc2)c2ccccc12` [Compound C-7, 1-phenyl-3-aminoindazole, reference compound], the “Inhibition … Table 3” value in data set [4] is 17%.
As to `CN(C)CCn1nc(N)c2ccccc21` [Compound (28), 1-(2-dimethylaminoethyl)-3-aminoindazole], the inhibition in vivo at 100 mg/kg in data set [1] (setting [6]) and in data set [1] (setting [7]) was 44% in each case. Besides, the “Inhibition values compared with comparative compounds” value in data set [1] is “higher than those of the compounds C-2 and C-3”. Further, in data set [2], the “Analgesic Coefficient, Table 18” value is listed as 0.96. The 50% lethal dose (LD50) at 72 h in data set [3] came out at 343 mg/kg.
In the case of `COc1ccc2c(c1)c(CC(=O)O)c(C)n2C(=O)c1ccc(Cl)cc1` [indomethacin, reference compound], the Ulcer index was 10.2 mm in data set [5] (10 mg/kg) and 34.3 mm in data set [5] (20 mg/kg).
`CCN(CC)CCCNc1n[nH]c2ccccc12` [Compound (10), 3-(3-diethylaminopropylamino)indazole]: in data set [5] (setting [8]), the “Occurrence frequency in combination” value is reported as “not changed” and the “Ulcer index in combination” value came to 14.9 mm. Moreover, the inhibition in vivo at 100 mg/kg in data set [1] (setting [6]) was 66%. Also, in data set [1] (setting [7]), the inhibition in vivo at 100 mg/kg was determined as 66%. For the same compound, the “Inhibition values compared with comparative compounds” value in data set [1] is reported as “higher than that of the compound C-1”. In addition, the “Analgesic Coefficient, Table 18” value in data set [2] was 1.31. The Gastric ulcer occurrence result in the data set with gastric ulcer in rats is “Gastric ulcer did not occur”. For the same compound, the 50% lethal dose (LD50) at 72 h in data set [3] was determined as 233 mg/kg.
In the case of `CN1CCN(CCCn2nc(N)c3ccccc32)CC1` [Compound (32), 1-{3-(4-methylpiperazino)propyl}-3-aminoindazole], the inhibition in vivo at 100 mg/kg in data set [1] (setting [6]) stood at 27%. Moreover, in data set [3], the median lethal dose (LD50) at 72 h was 368 mg/kg.
In the case of `c1ccc2c(NCCCN3CCCC3)n[nH]c2c1` [Compound (4), 3-(3-pyrrolidinopropylamino)indazole], the inhibition in vivo at 100 mg/kg in data set [1] (setting [6]) and in data set [1] (setting [7]) was 30% each time. The “Inhibition values compared with comparative compounds” value in data set [1] is “higher than that of the compound C-1”. Also, in data set [3], the 50% lethal dose (LD50) at 72 h is 97 mg/kg.
As for `CC(CCn1nc(NCCC(C)N2CCCCC2)c2ccccc21)N(C)C` (stereo not shown) [Compound (48), 1-(3-dimethylaminobutyl)-3-(3-piperidinobutylamino)indazole], the inhibition in vivo at 100 mg/kg in data set [1] (setting [6]) was 27%. The LD50 at 72 h in data set [3] was determined as 213 mg/kg.
The like results for `OC1CCN(CCCNc2n[nH]c3ccccc23)CC1` [Compound (8), 3-{3-(4-hydroxypiperidino)propylamino}indazole] were, in that order, 47% and 358 mg/kg.
As for `CN(C)CCCNc1nn(-c2ccccc2)c2ccccc12` [Compound C-6, 1-phenyl-3-(3-dimethylaminopropylamino)indazole, reference compound], the “Inhibition … Table 3” value in data set [4] stood at 0%.
As for `CN1CCN(CCCNc2n[nH]c3ccccc23)CC1` [Compound (13), 3-{3-(4-methylpiperazino)propylamino}indazole], the inhibition in vivo at 100 mg/kg in data set [1] (setting [6]) and in data set [1] (setting [7]) was 30% each time. The “Inhibition values compared with comparative compounds” value in data set [1] is reported as “higher than that of the compound C-1”. For the same compound, the 50% lethal dose (LD50) at 72 h in data set [3] was found to be 359 mg/kg.
Take `Nc1nn(CCCCCCN2CCCCC2)c2ccccc12` [Compound (19), 1-(6-piperidinohexyl)-3-aminoindazole]: the inhibition in vivo at 100 mg/kg in data set [1] (setting [6]) was 29%. Further, in data set [3], the LD50 at 72 h amounted to 144 mg/kg.
The like results for `CC1CCCC(C)N1CCCn1nc(N)c2ccccc21` (stereo not shown) [Compound (23), 1-{3-(2,6-dimethylpiperidino)propyl}-3-aminoindazole] were, in that order, 34% and 152 mg/kg.
The like results for `CC(C)CC(CCn1nc(N)c2ccccc21)N1CCCCC1` (stereo not shown) [Compound (30), 1-(5-methyl-3-piperidinohexyl)-3-aminoindazole] were, in that order, 35% and 153 mg/kg.
Turning to `c1ccc2c(NCCCN3CCCCC3)n[nH]c2c1` [Compound (2), 3-(3-piperidinopropylamino)indazole], the inhibition in vivo at 100 mg/kg in data set [1] (setting [6]) and in data set [1] (setting [7]) was 55% in each case. For the same compound, the “Inhibition values compared with comparative compounds” value in data set [1] is “higher than that of the compound C-1”. In data set [2], the “Analgesic Coefficient, Table 18” value is listed as 0.98. Further, in data set [3], the LD50 at 72 h was 101 mg/kg. Further, the “Inhibition … Table 3” value in data set [4] is recorded as 53%.
Consider `CCN(CC)CCCNc1nn(CCC(C)N2CCCCC2)c2ccccc12` (stereo not shown) [Compound (42), 1-(3-piperidinobutyl)-3-(3-diethylaminopropylamino)indazole], for which the inhibition in vivo at 100 mg/kg in data set [1] (setting [6]) was 29%. In addition, the 50% lethal dose (LD50) at 72 h in data set [3] came to 167 mg/kg.
Take `CCN(CC)CCCNc1nn(CCCN2CCCCC2)c2ccccc12` [Compound (38), 1-(3-piperidinopropyl)-3-(3-diethylaminopropylamino)indazole]: the inhibition in vivo at 100 mg/kg in data set [1] (setting [6]) and in data set [1] (setting [7]) was 29% in each case. Besides, the median lethal dose (LD50) at 72 h in data set [3] turned out to be 168 mg/kg.
